Assay results as given in ChEMBL document CHEMBL1157093, “Lactonecembranoids from Croton laevigatus” (J Nat Prod, 2010).

Test system: HeLa
Experiment: Antiproliferative activity against human HeLa cells by MTT assay
Type: functional, cell-based
Details: Homo sapiens, HeLa; read-out: IC50; call rule not given here

IC50 | Structure (SMILES)
38.4 µM | C/C1=C\CC[C@](C)(O)/C=C/[C@]2(C(C)C)CC/C(=C/CC1)C(=O)O2 (relative stereo) [LAEVIGATLACTON B]

Same assay, conditions: hela

Structure (SMILES) | IC50
C/C1=C\CC[C@@](C)(O)/C=C/[C@]2(C(C)C)CC/C(=C\CC1)C(=O)O2 (relative stereo) [LAEVIGATLACTONE A] | Not Active
CC(C)[C@@]12/C=C/[C@@](C)(O)C/C=C/[C@](C)(O)CC/C=C(\CC1)C(=O)O2 (relative stereo) [LAEVIGATLACTONE E] | Not Active
CC(C)[C@@]12/C=C/[C@@](C)(O)C/C=C/[C@](C)(OO)CC/C=C(\CC1)C(=O)O2 (relative stereo) [LAEVIGATLACTONE F] | Not Active

Other lines, results leading:

IC50 | Structure (SMILES)
Not Active | C/C1=C\C=C(\C(C)C)CC/C(C(=O)O)=C\CC/C(C)=C/CC1 [NEOCROTOCEMBRANEIC ACID]
Not Active | C/C1=C\CC[C@](C)(O)/C=C/[C@]2(C(C)C)CC/C(=C\CC1)C(=O)O2 (relative stereo) [LAEVIGATLACTONE C]
Not Active | C/C1=C\CC/C(C)=C/[C@@H](O)[C@]2(C(C)C)CC/C(=C\CC1)C(=O)O2 (relative stereo) [LAEVIGATLACTONE D]
